Target: T1, Angiotensin II receptor (Rattus norvegicus, UniProt P29089+P25095+P35351)
T1 sequence (P29089 whole entry): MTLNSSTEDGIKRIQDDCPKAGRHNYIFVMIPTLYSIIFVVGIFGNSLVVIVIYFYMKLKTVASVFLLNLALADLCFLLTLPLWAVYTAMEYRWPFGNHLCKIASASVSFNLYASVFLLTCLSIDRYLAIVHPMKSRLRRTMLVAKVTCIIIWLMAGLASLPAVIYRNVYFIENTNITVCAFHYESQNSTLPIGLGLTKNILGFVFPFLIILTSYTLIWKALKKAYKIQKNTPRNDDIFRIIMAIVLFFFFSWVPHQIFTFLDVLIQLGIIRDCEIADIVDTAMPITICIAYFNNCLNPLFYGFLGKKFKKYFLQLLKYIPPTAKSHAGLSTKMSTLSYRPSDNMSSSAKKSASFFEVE
T1 sequence (P25095 whole entry): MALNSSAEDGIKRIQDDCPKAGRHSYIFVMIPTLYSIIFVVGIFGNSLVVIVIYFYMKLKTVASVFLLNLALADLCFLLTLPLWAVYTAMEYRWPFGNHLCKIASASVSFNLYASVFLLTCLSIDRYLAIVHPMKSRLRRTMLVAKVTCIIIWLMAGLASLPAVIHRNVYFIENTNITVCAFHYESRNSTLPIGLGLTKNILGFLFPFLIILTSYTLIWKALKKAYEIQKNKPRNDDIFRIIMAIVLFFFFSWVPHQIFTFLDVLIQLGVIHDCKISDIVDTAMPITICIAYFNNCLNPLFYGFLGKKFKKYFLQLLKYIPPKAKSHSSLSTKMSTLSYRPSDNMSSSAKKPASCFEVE
T1 sequence (P35351 whole entry): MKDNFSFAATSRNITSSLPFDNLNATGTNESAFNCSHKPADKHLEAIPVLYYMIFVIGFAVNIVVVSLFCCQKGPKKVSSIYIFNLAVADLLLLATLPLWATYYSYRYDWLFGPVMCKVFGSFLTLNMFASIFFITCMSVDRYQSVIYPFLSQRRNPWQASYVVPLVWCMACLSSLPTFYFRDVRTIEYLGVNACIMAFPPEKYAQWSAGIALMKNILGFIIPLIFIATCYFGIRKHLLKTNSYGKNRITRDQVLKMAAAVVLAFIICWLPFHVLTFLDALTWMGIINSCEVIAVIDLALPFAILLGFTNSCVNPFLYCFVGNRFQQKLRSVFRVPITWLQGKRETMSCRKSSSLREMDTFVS
Assay: Binding affinity against Angiotensin II receptor, from rat adrenal gland
Format: tissue-based

Row | SMILES | IC50 [nM]
1 | COc1ccc(Cn2cnc3c2C[C@@H](C(=O)O)N(C(=O)/C=C\c2ccccc2)C3)cc1C | 2200
2 | COc1ccc(Cn2cnc3c2CCN(C(=O)C(c2ccccc2)c2ccccc2)C3)cc1C | 4400
3 | CC(C)NC(=O)N1Cc2ncn(Cc3ccccc3)c2CC1C(=O)O (stereo not drawn) | 21000
4 | O.O=C(O)[C@@H]1Cc2c(ncn2CC2CCCCC2)CN1C(=O)C(c1ccccc1)c1ccccc1 | 340
5 | CNC(=O)Nc1ccc(Cn2cnc3c2C[C@@H](C(=O)O)N(C(=O)C(c2ccccc2)c2ccccc2)C3)cc1C | 44
6 | COc1ccc(Cn2cnc3c2C[C@@H](C(=O)O)N(C(=O)C(c2ccc(C)cc2)c2ccc(C)cc2)C3)cc1C | 510
7 | COc1ccc(Cn2cnc3c2C[C@@H](C(=O)O)N(C(=O)C(c2ccccc2)C2CCCCC2)C3)cc1C (stereo partly drawn) | 85
8 | COc1ccc(Cn2cnc3c2C[C@@H](C(=O)O)N(C(=O)C(c2ccc([N+](=O)[O-])cc2)c2ccc([N+](=O)[O-])cc2)C3)cc1C | 13000
9 | O=C(O)C1Cc2c(ncn2Cc2ccccc2)CN1C(=O)C(c1ccc([N+](=O)[O-])cc1)c1ccc([N+](=O)[O-])cc1 (stereo not drawn) | 13000
10 | COc1ccc(C(C(=O)N2Cc3ncn(Cc4ccc(OC)c(C)c4)c3C[C@H]2C(=O)O)c2ccc(OC)cc2)cc1 | 2000
11 | COc1ccc(Cn2cnc3c2C[C@@H](C(=O)O)N(C(=O)CC24CC5CC(CC(C5)C2)C4)C3)cc1C | 28000
12 | COc1ccc(C)cc1Cn1cnc2c1C[C@@H](C(=O)O)N(C(=O)C(c1ccccc1)c1ccccc1)C2 | 720
13 | O=C(O)[C@@H]1Cc2c(ncn2CCC2CCCCC2)CN1C(=O)C(c1ccccc1)c1ccccc1 | 240
14 | Cc1cc(Cn2cnc3c2CC(CO)N(C(=O)C(c2ccccc2)c2ccccc2)C3)ccc1[N+](=O)[O-] (stereo not drawn) | 2000
15 | COc1ccc(C(C(=O)N2Cc3ncn(Cc4ccccc4)c3CC2C(=O)O)c2ccc(OC)cc2)cc1 (stereo not drawn) | 610

Results, then the compound that gave them:

Row | IC50 [nM] | SMILES
16 | 4600 | O=C(O)C1Cc2c(ncn2Cc2ccccc2)CN1C(=O)Oc1ccccc1 (stereo not drawn)
17 | 4200 | COc1ccc(Cn2cnc3c2C[C@@H](C(=O)O)N(C(=O)CC(c2ccccc2)c2ccccc2)C3)cc1C
18 | 19000 | O=C(O)C1Cc2c(ncn2Cc2ccccc2)CN1S(=O)(=O)Cc1ccccc1 (stereo not drawn)
19 | 2400 | O=C(C(=O)N1Cc2ncn(Cc3ccccc3)c2CC1C(=O)O)c1ccccc1 (stereo not drawn)
20 | 8800 | COC(=O)C1Cc2c(ncn2Cc2ccccc2)CN1C(=O)C(c1ccccc1)c1ccccc1 (stereo not drawn)
21 | 85 | CN(C)c1ccc(Cn2cnc3c2C[C@@H](C(=O)O)N(C(=O)C(c2ccccc2)c2ccccc2)C3)cc1
22 | 240 | O=C(O)[C@@H]1Cc2c(ncn2CCc2ccccc2)CN1C(=O)C(c1ccccc1)c1ccccc1
23 | 2100 | O=C(O)C1Cc2c(ncn2Cc2ccccc2)CN1C(=O)Nc1ccccc1 (stereo not drawn)
24 | 120 | O=C(O)[C@@H]1Cc2c(ncn2Cc2cccnc2)CN1C(=O)C(c1ccccc1)c1ccccc1
25 | 2500 | O=C(O)C1Cc2c(ncn2Cc2ccccc2)CN1C(=O)/C=C/c1ccccc1 (stereo not drawn)
26 | 11000 | O=C(O)C1Cc2c(ncn2Cc2ccccc2)CN1C(=O)NCc1ccccc1 (stereo not drawn)
27 | 9800 | O=C(O)C1Cc2c(ncn2Cc2ccccc2)CN1C(=O)c1cccc2ccccc12 (stereo not drawn)
28 | 71 | O=C(O)C1Cc2c(ncn2Cc2ccccc2)CN1C(=O)C(c1ccccc1)C1CCCC1 (stereo not drawn)
29 | 3500 | COc1ccc(Cn2cnc3c2C[C@@H](C(=O)O)N(C(=O)C(Cc2ccccc2)c2ccccc2)C3)cc1C (stereo partly drawn)
30 | 97 | Cc1cc(Cn2cnc3c2C[C@H](C(=O)O)N(C(=O)C(c2ccccc2)c2ccccc2)C3)ccc1N(C)C.O
31 | 290 | CCN(CC)c1ccc(Cn2cnc3c2C[C@@H](C(=O)O)N(C(=O)C(c2ccccc2)c2ccccc2)C3)cc1
32 | 9500 | COc1ccc(Cn2cnc3c2C[C@@H](C(=O)O)N(C(=O)C(C)(c2ccccc2)c2ccccc2)C3)cc1C
33 | 120 | COc1cccc(Cn2cnc3c2C[C@@H](C(=O)O)N(C(=O)C(c2ccccc2)c2ccccc2)C3)c1

Source: ChEMBL document CHEMBL1125793 (J Med Chem, 1991)
